From patent US20240408119A1, “DELIVERY OF THERAPEUTIC ALKALOID COMPOUNDS” (priority 2022, published 2024)

Test: Plasma Stability Assay (Example A3), rat plasma
Format: in vitro ADME
Details: prodrug remaining, 10 μM, 37° C.
Source text: The data is represented in the table below.

COc1ccc([C@@]23CCC(OP4(=O)OCC(C)(C)CO4)=C[C@@H]2N(C)CC3)cc1OC [Compound 323, 2-[[(3aS,7aS)-3a-(3,4-dimethoxyphenyl)-1-methyl-3,4,5,7a-tetrahydro-2H-indol-6-yl]oxy]-5,5-dimethyl-1,3,2λ^5-dioxaphosphinane 2-oxide]
Rat Plasma Prodrug (%) (0 min): 100.00% | Rat Plasma Prodrug (%) (10 min): >99% | Rat Plasma Prodrug (%) (30 min): 95.5% | Rat Plasma Prodrug (%) (60 min): 82.0% | Rat Plasma Prodrug (%) (120 min): 58.8% | Rat Plasma Prodrug (%) (240 min): 34.0%
